Results on one compound are retold here after patent publication US4411832A, “Polysaccharide matrices comprising macromolecular spacer arms for use as adsorbents in affinity chromatography techniques” (priority 1981, dated 1983).

The assay concerns the target T1, estradiol receptor (Bos taurus, UniProt P49884).
T1 construct: incubated in suspension with varying concentrations of [^3 H]estradiol and with the uterine supernatant; from tissue; host or cells: uterus (uterine supernatant)
T1 sequence (P49884 1-596): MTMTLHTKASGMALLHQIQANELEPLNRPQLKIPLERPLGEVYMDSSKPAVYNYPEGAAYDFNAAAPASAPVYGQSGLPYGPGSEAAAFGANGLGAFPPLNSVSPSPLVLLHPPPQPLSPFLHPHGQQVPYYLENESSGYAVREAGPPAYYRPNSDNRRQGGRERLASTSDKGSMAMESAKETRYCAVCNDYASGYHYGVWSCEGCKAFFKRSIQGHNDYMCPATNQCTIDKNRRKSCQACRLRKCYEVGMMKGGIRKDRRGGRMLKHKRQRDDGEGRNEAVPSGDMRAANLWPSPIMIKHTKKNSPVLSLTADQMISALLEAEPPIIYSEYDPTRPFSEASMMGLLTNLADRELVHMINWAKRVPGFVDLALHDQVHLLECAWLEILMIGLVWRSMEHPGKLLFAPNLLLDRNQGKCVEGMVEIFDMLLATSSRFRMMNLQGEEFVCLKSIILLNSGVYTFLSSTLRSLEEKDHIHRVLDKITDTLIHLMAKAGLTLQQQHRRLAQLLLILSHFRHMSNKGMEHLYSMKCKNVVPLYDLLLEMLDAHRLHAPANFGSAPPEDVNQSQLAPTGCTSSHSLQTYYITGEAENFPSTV
The assay is described as follows: Affinity of the estradiol receptor for agarose-estradiol derivatives (incubation with [3H]estradiol and uterine supernatant, reciprocal plots). It is filed as binding. The conditions noted are these: free ligand, uterine supernatant, estimated, read-out: dissociation constant. As for the experimental part: Experiments were performed to estimate the affinity of the estradiol receptor for the macromolecular agarose-estradiol derivatives to compare the relative affinities of the various derivatives. The adsorbents are incubated in suspension with varying concentrations of [^3 H]estradiol and with the uterine supernatant, and the data were plotted in reciprocal plots to estimate the comparative affinities toward the estradiol receptor.

Turning to `C[C@]12CC[C@@H]3c4ccc(O)cc4CC[C@H]3[C@@H]1CC[C@@H]2OC(=O)CCC(=O)O` [17β-estradiol 17-hemisuccinate], the Kd is roughly 700 nM.
